Data set [1] in a line: Nonclinical studies (hepatotoxicity risk). Type of data set: in vivo.
Data set [2] in a line: Conversion of prodrug ATH-1017 to active drug ATH-1001 in the plasma after SC injection. Type of data set: in vivo. The source says: ATH-1017 is an experimental treatment for Lewy body disease or disorder(s) (LBD), including Parkinson's disease dementia (PDD) and/or dementia with Lewy bodies (DLB), formulated as a sterile solution for subcutaneous (SC) injection. […] ATH-1017 was developed as a water-soluble prodrug of ATH-1001 to allow SC dosing in aqueous vehicles. The active drug ATH-1001 acts as an agonist of the hepatocyte growth factor (HGF) receptor and its tyrosine kinase, MET in the brain. The HGF/MET system presents a new therapeutic target to treat neurodegeneration and restore cognitive, behavioral, functional and motor capacities in LBD such as PDD.

Data set [3] can be described thus: Phase 2 randomized, double-blind, placebo-controlled study in subjects with PDD inclusive of probable DLB. The format is in vivo, human. The settings on record: 40 mg/day or 70 mg/day SC OD, 26 weeks.
Description: The study is conducted at a total of approximately 15 centers in the USA and optionally Canada. Subjects and their caregivers are required to sign an informed consent form (ICF) and are evaluated against the inclusion/exclusion criteria during a screening period; all eligible subjects will have the option to be tested for glucocerebrosidase (GBA) genotype. Subjects who meet all inclusion/exclusion criteria will undergo baseline ERP P300 assessments at 2 separate baseline visits. At the first baseline assessment (Visit 2a, Pre-baseline, Day-10 to Day-3), ERP P300 is uploaded for quality check immediately after completion of the visit. […] At this Baseline visit (Visit 2b), subjects undergo pre-dose baseline and post-dose ERP P300. […] The first SC injection of study drug is performed on site under supervision. The subject should withhold study drug administration on the day of subsequent clinic visits; study drug administration is done on site under supervision of site staff at these visits. […] During the double-blind treatment period, clinic visits take place on Day 1 and thereafter at Weeks 2, 6, 12, 16, 20, and 26, with a safety follow-up visit scheduled 4 weeks after completion of the double-blind period at Week 30. On Day 1, after completion of the first dose, subjects remain on-site 2 hours for post-treatment clinical observation. […]
The nature of data set [4]: Clinical studies of ATH-1017: safety and tolerability of single and multiple SC administration. The format is in vivo, human.

Square brackets hold non-standard residues; d marks the D form. Peptide text beside a SMILES is read from it. * marks the point of attachment. pY = N[CH](Cc1ccc(OP(=O)(O)O)cc1)C(=O)O; Hexanoyl = CCCCCC(=O)*; Ahx = NCCCCCC(=O)O

Consider `CCCCCC(=O)NC(Cc1ccc(OP(=O)(O)O)cc1)C(=O)NC(C(=O)NCCCCCC(N)=O)C(C)CC` (stereo not shown) [ATH-1017] (Hexanoyl-[pY]-Ile-[Ahx]-NH2; configuration not given here), for which, in data set [1], the hepatotoxicity risk entry is “potential risk for hepatotoxicity identified”. Moreover, the “conversion of prodrug to active drug ATH-1001” value in data set [2] is listed as “rapidly converted”. Moreover, the safety and tolerability entry in data set [3] is “acceptable safety and tolerability”; in data set [4] (40 mg SC, OD, over 9 consecutive days, AD subjects), “safe and well tolerated”; in data set [4] (multiple administration of 20, 40, 60 and 80 mg SC, OD, over 9 consecutive days, healthy elderly subjects), “safe and well tolerated”; in data set [4] (single SC administration of 2, 6, 20, 40, 60 and 90 mg, healthy young subjects), “safe and well tolerated”. Moreover, the “primary, secondary or exploratory endpoints (GST, ADAS-Cog13, ERP P300 latency etc.)” value in data set [3] (versus placebo) is on record as “achieves one or more of the primary, secondary, or exploratory endpoints”. Also, the “injection site reactions (pain, pruritus, erythema): severity” value in data set [4] (SC injection, human clinical studies, resolved without specific therapy) was “mild in nature”. For the same molecule, the hepatotoxicity entry in data set [4] (human studies) is on record as “has not been observed”. Further, in data set [4] (humans, to date), the CNS-specific adverse events result was “no CNS-specific adverse events have been observed”.

These data come from patent US11998556B2, “Methods of treating parkinson's disease and/or lewy body disease or disorder(s)” (Athira Pharma, Inc., priority 2021, dated 2024).
